One assay has as its target DDR1 (Homo sapiens, UniProt Q08345). The assay is described as follows: RBC radiometric HotSpot kinase assay, DDR1.
Another assay concerns the target T1, ABL1 kinase (Homo sapiens, UniProt P00519).
T1 construct: purchased Reaction Biology Corporation (RBC)
The assay is described as follows: Biochemical kinase profile (23 oncogenic kinases), ABL1. The settings on record: 10 μM compound, 10 μM ATP, single-dose duplicate; read-out: % inhibition ABL1 kinase (and rest of tested kinases). How it is done: (§1) These tested kinases were selected based on common off targets for several DDR1/2 kinase inhibitors.
(§2) Reaction Biology Corporation (RBC) Kinase HotSpot^SM service was adopted for biochemical evaluation of the target compounds against DDR1 and DDR2 kinases along with the kinase profile of compound 3q according to the reported assay protocol.
(§3) Figure 5 Inhibition percentages exerted by compound 3q (10 µM) over a panel of 23 oncogenic kinases. Compound 3q was tested in a single-dose duplicate mode, and the reactions were carried out at 10 μM ATP.

Assay [1] concerns DDR1-dependent cancer cell lines. Kind of assay: NCI SRB antiproliferative assay, whole panel of DDR1-dependent cell lines. It counts as cell-based, human. The note with it: 10 µM, span over the seven cell lines. How it is done:
(§4) Six members, 3a, 3g–j, and 3q, out of the investigated compounds were further evaluated for their antiproliferative effects against human cancer cell lines, including leukemia (K562), colon cancer (HCT116), non-small cell lung (NSCL) cancer (A549, NCI-H23 and NCI-H460), and breast cancer (MCF-7 and T47D) cells. The tested cell lines’ choice depended on their elevated DDR1 expression levels. The cell lines were all treated with a 10 µM concentration of the tested compounds, and the results were expressed as the percentage of growth inhibition (%GI) (Table 4).
(§5) Inhibition of the tumor relevant carbonic anhydrases IX and XII may be one of these additional mechanisms.
(§6) The evaluation of the antiproliferative activities of compounds 3a, 3g–j, and 3q over a panel of DDR1-dependent cell lines was conducted employing the sensitive Sulforhodamine B (SRB) assay at the National Cancer Institute (NCI), Bethesda, Maryland, USA, following the standard protocol.
In general terms: Sulforhodamine B stains cellular protein and so reports cell mass.

Assay [2] concerns A549 non-small cell lung cancer cells. Kind of assay: NCI SRB antiproliferative assay, A549. The settings on record: Homo sapiens, read-out: % Growth inhibition at 10 µM A549. It counts as cell-based. How it is done: as §4, §5, §6
In assay [3] the test system is HCT116 colon cancer cells. Kind of assay: NCI SRB antiproliferative assay, HCT116. The note with it: Homo sapiens, HCT-116; read-out: % Growth inhibition at 10 µM HCT116. Type of assay: cell-based. How it is done:
as §4, §5, §6

In a further assay the target is T2, c-Kit kinase (Homo sapiens, UniProt P10721).
T2 construct: purchased Reaction Biology Corporation (RBC)
The assay is described as follows: Biochemical kinase profile (23 oncogenic kinases), c-Kit. The settings on record: 10 μM compound, 10 μM ATP, single-dose duplicate. Here is the method:
as §1, §2, §3

The target in a further assay is T3, DDR2 (Homo sapiens, UniProt Q16832).
T3 sequence (Q16832 22-855): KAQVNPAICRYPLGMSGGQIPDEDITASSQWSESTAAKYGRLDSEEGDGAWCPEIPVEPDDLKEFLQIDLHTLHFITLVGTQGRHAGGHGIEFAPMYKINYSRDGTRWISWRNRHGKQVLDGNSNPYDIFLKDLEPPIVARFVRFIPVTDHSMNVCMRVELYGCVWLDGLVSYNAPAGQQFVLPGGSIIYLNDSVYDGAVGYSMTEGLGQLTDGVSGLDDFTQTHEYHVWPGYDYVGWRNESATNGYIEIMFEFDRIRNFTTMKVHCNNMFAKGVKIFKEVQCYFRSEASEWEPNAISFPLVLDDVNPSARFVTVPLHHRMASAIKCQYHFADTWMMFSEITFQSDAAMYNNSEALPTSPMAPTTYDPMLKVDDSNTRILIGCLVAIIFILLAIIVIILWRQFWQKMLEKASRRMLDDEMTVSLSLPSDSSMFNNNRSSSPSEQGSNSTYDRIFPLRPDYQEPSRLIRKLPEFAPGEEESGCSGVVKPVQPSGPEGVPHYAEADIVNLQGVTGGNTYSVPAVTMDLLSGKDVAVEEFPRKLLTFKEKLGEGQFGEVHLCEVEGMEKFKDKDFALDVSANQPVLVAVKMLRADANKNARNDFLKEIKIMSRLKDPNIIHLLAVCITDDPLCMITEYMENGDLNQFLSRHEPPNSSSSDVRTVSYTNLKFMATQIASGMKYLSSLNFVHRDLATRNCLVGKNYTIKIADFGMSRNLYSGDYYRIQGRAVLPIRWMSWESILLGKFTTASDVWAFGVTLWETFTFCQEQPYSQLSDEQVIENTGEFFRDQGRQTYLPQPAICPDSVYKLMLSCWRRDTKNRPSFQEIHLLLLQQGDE
Kind of assay: RBC radiometric HotSpot kinase assay, DDR2.

The subject of the next assay is K562 leukemia cells. The assay is described as follows: NCI SRB antiproliferative assay, K562. The settings on record: Homo sapiens, read-out: % Growth inhibition at 10 µM K562. Type of assay: cell-based. How it is done:
as §4, §5, §6

Assay [4] relates to T47D breast cancer cells. The assay is described as follows: NCI SRB antiproliferative assay, T47D. It counts as cell-based. The note with it: Homo sapiens, read-out: % Growth inhibition at 10 µM T47D. Here is the method:
as §4, §5, §6

For assay [5], the system named is MCF-7 breast cancer cells. The assay is described as follows: NCI SRB antiproliferative assay, MCF-7. Type of assay: cell-based. The note with it: Homo sapiens, MCF7; read-out: % Growth inhibition at 10 µM MCF-7. Here is the method:
as §4, §5, §6

In the next assay the target is T4, TrkA kinase (Homo sapiens, UniProt P04629).
T4 construct: purchased Reaction Biology Corporation (RBC)
Kind of assay: Biochemical kinase profile (23 oncogenic kinases), TrkA. The settings on record: 10 μM compound, 10 μM ATP, single-dose duplicate. Here is the method:
as §1, §2, §3

Assay [6] has as its system NCI-H460 non-small cell lung cancer cells. The assay is described as follows: NCI SRB antiproliferative assay, NCI-H460. Type of assay: cell-based. The note with it: Homo sapiens, read-out: % Growth inhibition at 10 µM NCI-H460. How it is done: as §4, §5, §6
The test system of assay [7] is NCI-H23 non-small cell lung cancer cells. Kind of assay: NCI SRB antiproliferative assay, NCI-H23. It counts as cell-based. The settings on record: Homo sapiens, read-out: % Growth inhibition at 10 µM NCI-H23. How it is done:
as §4, §5, §6

In assay [8] the test system is HCT116 colon cancer cells. The note with it: reported data ref 20; cited from earlier work.
Assay [9] deals with T47D breast cancer cells. The note with it: reported data ref 20; cited from earlier work.
Assay [10] relates to A549 non-small cell lung cancer cells. The settings on record: reported data ref 20; cited from earlier work.

Sequence of DDR1 (Q08345 19-913): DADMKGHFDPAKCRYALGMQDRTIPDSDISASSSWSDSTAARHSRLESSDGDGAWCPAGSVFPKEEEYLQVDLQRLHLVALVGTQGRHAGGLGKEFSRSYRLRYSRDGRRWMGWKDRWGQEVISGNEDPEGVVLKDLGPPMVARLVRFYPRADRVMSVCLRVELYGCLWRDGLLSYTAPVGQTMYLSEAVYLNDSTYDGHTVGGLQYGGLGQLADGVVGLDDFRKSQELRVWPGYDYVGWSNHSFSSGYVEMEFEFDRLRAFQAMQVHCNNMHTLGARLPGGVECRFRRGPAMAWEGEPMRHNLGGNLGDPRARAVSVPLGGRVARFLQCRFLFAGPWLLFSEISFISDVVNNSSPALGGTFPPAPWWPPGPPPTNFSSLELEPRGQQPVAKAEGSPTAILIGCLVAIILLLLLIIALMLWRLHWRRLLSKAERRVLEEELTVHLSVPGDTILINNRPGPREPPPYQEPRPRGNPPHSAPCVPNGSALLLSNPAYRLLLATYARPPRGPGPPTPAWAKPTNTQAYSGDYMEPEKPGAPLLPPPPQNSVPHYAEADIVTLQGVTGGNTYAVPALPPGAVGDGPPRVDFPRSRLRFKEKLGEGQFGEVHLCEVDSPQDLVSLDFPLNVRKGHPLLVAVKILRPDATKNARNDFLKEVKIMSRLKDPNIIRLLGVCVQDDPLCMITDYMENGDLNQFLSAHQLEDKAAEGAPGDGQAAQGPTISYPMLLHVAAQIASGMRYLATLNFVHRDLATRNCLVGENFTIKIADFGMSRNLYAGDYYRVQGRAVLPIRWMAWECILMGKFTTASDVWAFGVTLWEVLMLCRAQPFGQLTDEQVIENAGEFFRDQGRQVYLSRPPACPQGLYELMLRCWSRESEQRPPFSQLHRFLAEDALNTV
T1 sequence (P00519 whole entry): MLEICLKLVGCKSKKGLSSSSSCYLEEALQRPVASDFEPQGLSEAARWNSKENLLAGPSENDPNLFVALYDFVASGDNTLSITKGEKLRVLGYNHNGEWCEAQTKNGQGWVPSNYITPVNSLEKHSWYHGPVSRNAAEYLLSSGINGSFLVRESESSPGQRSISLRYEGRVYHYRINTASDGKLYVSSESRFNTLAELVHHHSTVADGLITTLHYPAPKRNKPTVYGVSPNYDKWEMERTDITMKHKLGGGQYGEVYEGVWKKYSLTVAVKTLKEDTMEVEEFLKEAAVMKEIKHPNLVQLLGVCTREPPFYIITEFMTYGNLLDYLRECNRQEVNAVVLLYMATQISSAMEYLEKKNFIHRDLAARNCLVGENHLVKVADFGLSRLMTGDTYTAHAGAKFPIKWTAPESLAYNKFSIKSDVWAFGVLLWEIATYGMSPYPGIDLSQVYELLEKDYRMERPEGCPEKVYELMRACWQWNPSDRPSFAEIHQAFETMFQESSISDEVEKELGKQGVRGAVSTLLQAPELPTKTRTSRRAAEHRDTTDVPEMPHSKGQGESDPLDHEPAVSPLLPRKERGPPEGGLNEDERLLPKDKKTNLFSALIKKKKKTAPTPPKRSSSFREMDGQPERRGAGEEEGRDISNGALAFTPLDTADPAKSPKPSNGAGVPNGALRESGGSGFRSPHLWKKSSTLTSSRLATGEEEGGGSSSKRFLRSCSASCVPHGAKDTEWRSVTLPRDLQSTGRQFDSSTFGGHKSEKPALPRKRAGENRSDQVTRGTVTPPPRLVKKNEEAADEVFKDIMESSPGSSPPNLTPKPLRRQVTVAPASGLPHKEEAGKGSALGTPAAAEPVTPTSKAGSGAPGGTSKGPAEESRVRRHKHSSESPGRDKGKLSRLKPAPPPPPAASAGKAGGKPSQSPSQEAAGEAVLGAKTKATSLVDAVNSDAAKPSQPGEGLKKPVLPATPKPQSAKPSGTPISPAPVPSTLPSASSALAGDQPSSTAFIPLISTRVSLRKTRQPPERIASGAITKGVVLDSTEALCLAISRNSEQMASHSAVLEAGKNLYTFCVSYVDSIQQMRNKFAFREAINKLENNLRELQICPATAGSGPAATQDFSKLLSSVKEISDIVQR
T2 sequence (P10721 26-976): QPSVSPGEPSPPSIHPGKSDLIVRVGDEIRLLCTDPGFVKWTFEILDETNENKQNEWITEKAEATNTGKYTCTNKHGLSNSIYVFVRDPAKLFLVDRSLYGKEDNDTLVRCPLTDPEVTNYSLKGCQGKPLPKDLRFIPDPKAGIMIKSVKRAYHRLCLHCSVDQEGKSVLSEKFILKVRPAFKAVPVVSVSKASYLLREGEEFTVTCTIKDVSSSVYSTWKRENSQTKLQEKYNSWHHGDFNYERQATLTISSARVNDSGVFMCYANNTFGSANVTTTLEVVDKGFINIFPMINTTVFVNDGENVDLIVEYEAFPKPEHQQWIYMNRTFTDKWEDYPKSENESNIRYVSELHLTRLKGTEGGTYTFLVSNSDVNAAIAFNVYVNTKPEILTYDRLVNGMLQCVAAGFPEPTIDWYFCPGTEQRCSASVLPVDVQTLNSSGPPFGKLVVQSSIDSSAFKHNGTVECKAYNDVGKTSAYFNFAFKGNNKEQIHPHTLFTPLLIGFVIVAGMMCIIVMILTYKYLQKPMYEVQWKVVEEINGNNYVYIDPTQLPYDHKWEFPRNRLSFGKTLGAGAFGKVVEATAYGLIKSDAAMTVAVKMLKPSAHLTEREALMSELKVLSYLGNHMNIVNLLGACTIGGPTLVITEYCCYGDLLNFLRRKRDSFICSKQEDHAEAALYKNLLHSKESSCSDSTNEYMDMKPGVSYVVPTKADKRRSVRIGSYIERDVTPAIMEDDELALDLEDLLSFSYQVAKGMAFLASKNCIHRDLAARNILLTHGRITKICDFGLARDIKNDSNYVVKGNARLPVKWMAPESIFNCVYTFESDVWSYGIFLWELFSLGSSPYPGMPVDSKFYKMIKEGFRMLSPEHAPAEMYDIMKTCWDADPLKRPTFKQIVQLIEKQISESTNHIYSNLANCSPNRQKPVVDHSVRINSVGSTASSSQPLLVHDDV
T4 sequence (P04629 33-796): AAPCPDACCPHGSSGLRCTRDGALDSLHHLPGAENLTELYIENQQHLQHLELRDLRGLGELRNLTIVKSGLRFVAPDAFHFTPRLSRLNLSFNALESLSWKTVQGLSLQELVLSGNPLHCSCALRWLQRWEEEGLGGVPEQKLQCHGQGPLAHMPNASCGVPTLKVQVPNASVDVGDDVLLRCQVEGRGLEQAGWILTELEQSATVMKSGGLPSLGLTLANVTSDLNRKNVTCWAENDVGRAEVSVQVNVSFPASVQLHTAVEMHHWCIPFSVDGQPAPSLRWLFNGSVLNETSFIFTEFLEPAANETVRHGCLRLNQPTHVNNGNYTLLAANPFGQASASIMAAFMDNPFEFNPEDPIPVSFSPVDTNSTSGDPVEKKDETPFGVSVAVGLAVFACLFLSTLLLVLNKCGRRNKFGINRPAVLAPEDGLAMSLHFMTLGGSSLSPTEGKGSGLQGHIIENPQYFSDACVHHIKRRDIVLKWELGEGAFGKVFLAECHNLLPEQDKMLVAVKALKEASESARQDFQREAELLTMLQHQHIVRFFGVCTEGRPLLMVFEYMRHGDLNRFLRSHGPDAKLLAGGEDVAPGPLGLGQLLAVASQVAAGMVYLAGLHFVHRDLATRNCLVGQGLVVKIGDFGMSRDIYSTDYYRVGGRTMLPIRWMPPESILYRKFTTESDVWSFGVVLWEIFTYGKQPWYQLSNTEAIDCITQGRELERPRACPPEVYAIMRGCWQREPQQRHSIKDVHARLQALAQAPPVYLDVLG
Description for DDR2: All compounds in this study were tested against DDR1 and DDR2 at a 10 µM dose at Reaction Biology Corporation (RBC, Malvern, PA, USA) employing the radiometric HotSpot Kinase assay protocol (Table 1).

For orientation: IC50 means the concentration needed to halve the response being measured. A high value points to weaker potency in that assay. One may read the inhibition as the drop in the measured response relative to a control, in per cent. As to `O=C(Nc1cccc(OC(F)(F)F)c1)Nc1ccc2oc(=O)ccc2c1` [Compound 3q, 1-(2-Oxo-2H-chromen-6-yl)-3-(3-(trifluoromethoxy)phenyl)urea], the IC50 against DDR1 amounted to 0.191 µM; at DDR2 it was 5.08 µM. Also, the “SI: Selectivity index (IC50 DDR2/IC50 DDR1)” value on DDR1 (DDR1 over DDR2) came to 26.6. The inhibition at 10 µM on DDR1 (read-out: % Inhibition at 10 μM (SEM) DDR1) was 87.4%; at ABL1 kinase, less than 25%; in assay [2], 45.6%; in assay [3], 66.3%; on DDR2 (read-out: % Inhibition at 10 μM (SEM) DDR2), 70.1%; in the assay on K562 leukemia cells, 67.1%. Moreover, the inhibition at 10 µM in the assay on T47D breast cancer cells [4] came out at 69.4%; in assay [5], 57%; in assay [6] it was 69.9%; in assay [7], 56.6%. Also, the “%GI over all tested cell lines” value in assay [1] is 45.65–69.93%. Besides, the “%EI c-Kit kinase” value at c-Kit kinase is listed as 75.59%. Moreover, the “%EI TrkA kinase” value on TrkA kinase was 46.95%.

One may read the GI50 as the concentration at which growth is held to half of that of the control. In the case of `CCN1CCN(Cc2ccc(C(=O)Nc3ccc(C)c(Oc4ccc5c(c4)CC(=O)N5)c3)cc2C(F)(F)F)CC1` [DDR1-IN-1], the GI50 in assay [8] was 8.7 µM; in the assay with T47D breast cancer cells [9], greater than 10 µM; in [10], greater than 10 µM. On DDR2, this compound displayed an IC50 of 0.0597 µM.

Values taken from PMC11054573, “Identification of Ureidocoumarin-Based Selective Discoidin Domain Receptor 1 (DDR1) Inhibitors via Drug Repurposing Approach, Biological Evaluation, and In Silico Studies” (Pharmaceuticals, 2024).
